Assay results published in patent US20120078527A1, “KIT AND METHOD FOR PREDICTING SENSITIVITY OF GASTRIC CANCER PATIENT TO ANTI-CANCER AGENT” (SAMSUNG ELECTRONICS CO., LTD., priority 2010, published 2012).

System: advanced (terminal) gastric cancer patients
Assay: Change in tumor size after cisplatin-based chemotherapy in gastric cancer patients
Assay type: in vivo, human
Details: population of 151 advanced (terminal) gastric cancer patients; cisplatin-based chemotherapy per NCCN guidelines after palliative surgical resection; judged by changes in tumor size
Protocol: A population of 151 advanced (terminal) gastric cancer patients who were treated with cisplatin-based chemotherapy (in Samsung Medical Center, Seoul, Korea) after palliative surgical resection were selected to test for sensitivity to the anti-cancer agent. That is, the anti-cancer agent (cisplatin) was administered to the patients according to National Comprehensive Cancer Network (NCCN) guidelines, and changes in tumor size after the administration of the anti-cancer agent were measured to determine whether the anti-cancer therapy was effective. Then, the patients were grouped into two groups: one group of 103 patients for which the anti-cancer therapy was effective (responders), and the other group of 48 patients for which the anti-cancer therapy was not effective (nonresponders). In addition, to identify SNPs associated with response or nonresponse to the anti-cancer agent, DNA of each of the patients was extracted from gastric tumor tissue removed from the patient using QIAamp DNA Mini and blood Mini kits.

`N.N.[Cl][Pt][Cl]` [cisplatin] was tested, and the “patients for which the anti-cancer therapy was effective (responders)” value was 103 patients and the “patients for which the anti-cancer therapy was not effective (nonresponders)” value was 48 patients.
